Consider three molecules from US20060084599A1, “Compositions, methods and kits relating to notch signaling” (Maine Medical Center, priority 2003, published 2006).

In assay [1] the test system is FGF1R136K NIH 3T3 cell transfectants. In words: Thrombin stimulation and immunoblot analysis of FGF1 release. In kind it is cell-based, murine. On the procedure:
FGF1R136K NIH 3T3 cell transfectants or adenovirally-transduced NIH 3T3 cells were washed with DMEM containing 5 units/ml of heparin (Sigma) and stimulated with either 10 μg/ml α-thrombin (a gift from Dr. J. Fenton) or 5 μM TRAP (Sigma) at 37° C. for different periods of time. Control cells were incubated in the absence of thrombin for the same time period. Conditioned media were collected at each time period, filtered, and concentrated as previously described (Jackson et al., 1992, Proc. Natl. Acad. Sci. U.S.A. 89:10691-10695). The concentrates were resolved by SDS-PAGE and subjected to immunoblot analysis using a rabbit antibody against either FGF1 (Jackson et al., 1992), Syt1 (LaVallee et al., 1998, J. Biol. Chem. 273:22217-22223) or Myc (Oncogene). The heat shock-induced release of FGF1 was performed at 42° C. for 110 minutes as previously described (Jackson et al., 1992). Cell viability was assessed by measuring lactate dehydrogenase activity in the conditioned medium after filtration as disclosed previously elsewhere herein (published as Mandinova et al., 2003, J. Cell Sci. 116:2687-2696), and total cell lysates were obtained and processed for immunoblot analysis as described (Landriscina et al., 2001, J. Biol. Chem. 276:22544-22552).
Stable FGF1R136K NIH 3T3 cell transfectants were pre-incubated with either 100 ng/ml pertussis toxin (PTX) or 10 ng/ml cholera toxin (CT) for 60 minutes at 37° C. in DMEM containing 10% BCS. After pre-incubation, the cells were washed, stimulated with 10 μg/ml of thrombin for different periods of time in the presence of either 100 ng/ml PTX or 10 ng/ml CT, conditioned medium collected, and subjected to immunoblot analysis as described above.

Assay [2] has as its system NIH 3T3 cell transfectants. Kind of assay: Immunofluorescence microscopy of actin stress fibers and focal adhesion sites. In kind it is cell-based, mouse. The settings on record: stable NIH 3T3 cell transfectants expressing the ligand. On the procedure: Immunofluorescence Microscopy. Cells were plated on glass coverslips and fixed with 4% (v/v) paraformaldehyde. Actin stress fibers were visualized by FITC-conjugated phalloidin (Sigma), a monoclonal anti-vinculin antibody (Sigma) was used to visualize focal adhesion sites, and a monoclonal anti-β-catenin antibody (BD Transduction Laboratories) and a monoclonal anti-pan cadherin antibody (Sigma) were both used to visualize cell-cell adhesions. Immunofluorescent staining and confocal microscopy were performed as previously described (Small et al., 2001, J. Biol. Chem. 276:32022-32030).

Another assay relates to NCSC populations. In words: Clonogenic differentiation assay of NCSC: ligand pre-incubation, then BMP2 challenge. In kind it is cell-based, mouse. Conditions: then 1 ng/ml BMP2 seven days, mean ± SD. The method, then: Clonogenic assays were performed as described (Stemple et al., 1992, Cell 71:973-985). Briefly, populations of murine NCSC were plated at a clonal density and maintained for a maximum of 14 days in Morrison media supplemented with 15% chick embryo extract (Morrison et al., 1999, Cell 96:737-749). The resulting clones were fixed in an acetic acid:ethanol solution (2:1) and stained with antibodies against peripherin (Chemicon) to detect neurons, smooth muscle actin (Sigma) to detect myofibroblasts, and GFAP (Chemicon) to detect Schwann cells. Clones were scored based on the appearance of just one phenotypic representative. The number and percentage of clones containing neurons only (N), Schwann cells only (S), myofibroblasts only (M), N+S, N+M, N+S+M, and S+M were scored at day 14 unless otherwise stated. The production of each representative phenotype in each individual clone was also scored to complement the clonal population assay.
NCSC Retain Neurogenic capacity in the presence of sJ1. A clonogenic differentiation assay was performed using mouse NSCS populations as described previously (Kubu et al., 2002, Dev. Biol. 244:199-214; Stemple et al., 1992, Cell 71:973-985). The cells were incubated in Stemple media (Stemple et al., 1992) with or without 5 nM sDl1 or 7.5 nM sJ1 for the time periods set forth in Table 1. After the initial incubation period, cells were washed and neuronal differentiation was challenged in the presence of 1 ng/ml BMP2 for an additional seven days. The resulting clones were fixed and stained for detection of neural crest markers. The data disclosed in Table 1 is presented as the percentage of glial-only, neuron-only, and neuron colonies containing either smooth muscle or glial markers as the mean ± standard deviation (SD) of three experiments originating from three independent cell isolations. Note the retention of neurogenic differentiation capacity in sJ1-treated cells (*=p<0.01) compared with the sDl1-treated cells.

In assay [3] the test system is NIH 3T3 cell transfectants. Kind of assay: Colony formation in soft agar (anchorage-independent growth). In kind it is cell-based, murine. The settings on record: stable NIH 3T3 cell transfectants expressing the ligand. On the procedure: Clonal populations of NIH 3T3 cells stably transfected with vector control, soluble Jagged1 (sJ1), constitutively active Notch1 (caN1), constitutively active Notch 2 (caN2), dominant negative Notch 1 (dnN1), dominant negative Notch 2 (dnN2), an oncogenic mutant of FGF1 engineered with the FGF4 signal peptide sequence (hst-β (FGF4):FGF1), or constitutively active oncogenic Ras construct (caRas), were plated on 6 cm tissue culture dishes with 0.5% agar in an overlay containing DMEM (Gibco BRL) media, 10% bovine calf serum (BCS; Hyclone), and 0.33% agar at 1.5×10^3 cells/dish. As indicated, some dishes were also treated with 1 μM of the FGFR1-specific inhibitor, PD166866 (Panek et al., 1998, J. Pharmacol. Exp. Ther. 286: 569-577) and/or 10 ng/ml recombinant human FGF1 and 10 U/ml heparin (Sigma). Cells were fed with 0.5 ml of media with or without FGF1 and/or the FGFR1-specific inhibitor every 3 days as indicated. Twenty days after plating, colonies were stained with p-iodonitrotetrazolium violet (Sigma) for visualization. Quantitation of colony formation was achieved by counting all p-iodonitrotetrazolium violet-stained colonies consisting of more than 4 cells under a Zeiss Stemi SVII Apo dissecting microscope.
Anchorage-Dependent and -Independent Cell Growth Assays. Approximately 3×10^4 cells were plated on fibronectin (10 μg/cm^2)-coated in 12-well cell culture dishes (Falcon) in DMEM containing 10% BCS (v/v) (Hyclone). Three wells of the individual NIH 3T3 cell transfectants were harvested every third day and cell number was quantitated using a hemocytometer. Anchorage-independent cell growth was evaluated by plating in duplicate approximately 1.7×10^3 cells in DMEM containing 0.5% (w/v) agar (Sigma) 10% (v/v) BCS into 5 cm plastic dishes (Falcon) as previously described (Small et al., 2003, J. Biol. Chem. 278:16405-16413).

[4] abbreviates: 5 nM sDl1 or 7.5 nM sJ1 for 24 hrs.

Marks after values point to notes of the source that are not given here.

For thrombin, the “export of FGF2” value in assay [1] was “unable to induce the export of FGF2”. Besides, in assay [1] (37° C.), the “thrombin concentration giving maximal release of FGF1R136K” value was determined as 10 µg/mL and the “time after which detectable extracellular FGF-1 was present” value worked out at 5 min. The “release of FGF1R136K into the extracellular compartment” value in assay [1] (37° C., 10 μg/ml α-thrombin or 5 μM TRAP) was “rapid and sustained appearance of the FGF1R136K mutant in the extracellular compartment”. The “release of FGF1R136K from cells transduced with constitutively active Notch1” value in assay [1] (caN1-transduced FGF1R136K NIH 3T3 cells) is recorded as “unable to initiate the release of the FGF1R136K mutant”. For the same molecule, the “release of S100A13” value in assay [1] (cells co-expressing S100A13 and FGF1R136K, 37° C.) is “presence of S100A13 in the extracellular compartment with kinetics similar to that observed with FGF1”. Moreover, the “release of p40 Syt1” value in assay [1] (p40 Syt1-transduced FGF1R136K NIH 3T3 cells) was “presence of p40 Syt1in the extracellular compartment”.

With “sJ1: Soluble Jagged1, amino acid residues about 1 to 1067 (SEQ ID NO:3) of full-length human Jagged1”, the “F-actin stress fibers and focal adhesion sites” value in assay [2] is “significantly reduced actin stress fibers and focal adhesion sites”. For the same molecule, in assay [1] (37° C.), the “time after which detectable extracellular FGF-1 was present” value worked out at 5 min. Moreover, the Glial-Only colonies with NCSC populations (setting [4]) is listed as 0%; in the assay on NCSC populations (7.5 nM sJ1 for 72 hrs), 0.8 ± 1.4%*; with NCSC populations (7.5 nM sJ1 for 120 hrs), 5.82 ± 3.4%*; in the assay on NCSC populations (7.5 nM sJ1 for 168 hrs) it was 13.3 ± 4.5%*. Further, the Neuron-Containing colonies in the assay on NCSC populations (setting [4]) turned out to be 71.4 ± 6.2%*; in the assay with NCSC populations (7.5 nM sJ1 for 72 hrs), 74.8 ± 16.3%*; in the assay on NCSC populations (7.5 nM sJ1 for 120 hrs) it was 52.01 ± 14.1%*; with NCSC populations (7.5 nM sJ1 for 168 hrs), 35.03 ± 9.1%. Also, the Neuron-Only colonies was 54.4 ± 8.4%* with NCSC populations (setting [4]), 42.8 ± 6.6%* in the assay on NCSC populations (7.5 nM sJ1 for 72 hrs), 13.43 ± 6.5%* in the assay with NCSC populations (7.5 nM sJ1 for 120 hrs) and 6.5 ± 1.3%* in the assay with NCSC populations (7.5 nM sJ1 for 168 hrs). Moreover, the “anchorage-independent growth of transfectants” value in assay [3] was “form colonies in soft agar”.

B1: sDl1: soluble non-transmembrane form (extracellular domain) of the Notch ligand Delta1 (protein)
chain: QVWSSGVFELKLQEFVNKKGLLGNRNCCRGGAGPPPCACRTFFRVCLKHYQASVSPEPPCTYGSAVTPVLGVDSFSLPDGGGADSAFSNPIRFPFGFTWPGTFSLIIEALHTDSPDDLATENPERLISRLATQRHLTVGEEWSQDLHSSGRTDLKYSYRFVCDEHYYGEGCSVFCRPRDDAFGHFTCGERGEKVCNPGWKGPYCTEPICLPGCDEQHGFCDKPGECKCRVGWQGRYCDECIRYPGCLHGTCQQPWQCNCQEGWGGLFCNQDLNYCTHHKPCKNGATCTNTGQGSYTCSCRPGYTGATCELGIDECDPSPCKNGGSCTDLENSYSCTCPPGFYGKICELSAMTCADGPCFNGGRCSDSPDGGYSCRCPVGYSGFNCEKKIDYCSSSPCSNGAKCVDLGDAYLCRCQAGFSGRHCDDNVDDCASSPCANGGTCRDGVNDFSCTCPPGYTGRNCSAPVSRCEHAPCHNGATCHERGHRYVCECARGYGGPNCQFLLPELPPGPAVVDLTEKLEGQGGPFPW
modifications: left off: small tags and cut ends
notes: soluble non-transmembrane form (extracellular domain) of the Notch ligand Delta1
As for B1, the “F-actin stress fibers and focal adhesion sites” value in assay [2] was “normal levels of F-actin stress fibers and focal adhesion sites”. In the assay with NCSC populations (setting [4]), this molecule gave a Glial-Only colonies of 57.8 ± 9.9%, a Neuron-Containing colonies of 7.0 ± 5.7% and a Neuron-Only colonies of 0%. In assay [3], the “anchorage-independent growth of transfectants” value is recorded as “form colonies in soft agar”.
